Results from publication PMC9502870.

Assay: Intramolecular Nicholas reaction: C-O or C-N bond formation between OH/NHR nucleophile and Co2(CO)6-stabilised propargyl cation (from propargylic OMe), BF3·Et2O 1.3-8 equiv, 0 °C to rt
Settings: the molecule shown is the open-chain precursor, 10-membered ring, DCM, 1.0 mM, 25.0 °C

SMILES: COCC#Cc1sc2ccccc2c1C#CCCNCc1ccccc1 [17a -> 18 (BF3·Et2O)]
- ring closure, isolated yield (20.0 h): 4%

SMILES: COCC#Cc1sc2ccccc2c1C#CCCNC(=O)c1ccccc1 [17b (no macrocycle; pyrroline 19 formed)]
- ring closure, isolated yield (2.0 h): 0%

SMILES: COCC#Cc1sc2ccccc2c1C#CCCNS(=O)(=O)c1ccccc1[N+](=O)[O-] [12a -> 13a]
- ring closure, isolated yield (1.0 h): 46%

SMILES: COCC#Cc1sc2ccccc2c1C#CCCNS(=O)(=O)c1ccc(N)cc1 [12b (free NH2, no cyclization)]
- ring closure, isolated yield: 0%

SMILES: COCC#Cc1sc2ccccc2c1C#CCC(O)CC(=O)OC (stereo not shown) [4 -> 5]
- ring closure, isolated yield (1.0 h): 51%

SMILES: C#CCCCC(=O)Nc1ccc(S(=O)(=O)NCCC#Cc2c(C#CCOC)sc3ccccc23)cc1 [12c -> 13b]
- ring closure, isolated yield (1.0 h): 63%

SMILES: COCC#Cc1sc2ccccc2c1C#CCCNS(=O)(=O)c1ccc(C)cc1 [NHTs Co-complex -> 13c (ref 42)]
- ring closure, isolated yield: 76%
